These results are taken from PMC9127371, “Assembly of nuclear dimers of PI3K regulatory subunits is regulated by the Cdc42-activated tyrosine kinase ACK” (The Journal of Biological Chemistry, 2022).

Format in all cases: cell-based
For assay [1], the system named is HEK293T cells expressing WT p85β. The assay can be described thus: Proliferation of HEK293T cells stably expressing WT p85β. The settings on record: AIM-100 8 μM; DMEM + 10% FBS; 1 μg/ml doxycycline; live cell counts, fold change over 24 h; three independent experiments. As to the method:
(§1) Figure 4 Proliferation of HEK293T cells expressing ACK and p85β variants.A, proliferation of HEK293T cells stably expressing wtACK and caACK in 1% FBS. HEK293T cells stably expressing empty vector (control) or HA-tagged wtACK or caACK were seeded at a density of 3 × 10^4 cells per well. Cells were plated in replicates of three, and live cell counts were obtained at the times indicated. Data are plotted as fold change over t = 0 (seeding density). Data from three independent experiments are shown. Error bars represent SD. […] GAPDH is included as a loading control. Data are represented on the right in a bar chart with group significance testing performed by a two-way ANOVA; ∗p <0.05; ∗∗p < 0.01. B, proliferation of HEK293T cells stably expressing empty vector (control), WT p85β, or Y599F p85β. HEK293T cells stably expressing inducible FLAG-tagged WT p85β or p85β Y599F were seeded at a density of 3 × 10^4 cells per well and incubated at 37 °C for 16 h. All cells were then treated with 1 μg/ml doxycycline and incubated at 37 °C for the times indicated before live cell counts were taken. Data are plotted as fold change over the cell count at 24 h post doxycycline treatment. […]
(§2) Matched cell lines were chosen that had similar expression levels of the transgene. […] Cells were trypsinized and dispersed using a syringe before being counted using a Countess automated cell counter at specific timepoints. […]

Assay [2] concerns HEK293T cells expressing Y599F p85β. The assay can be described thus: Proliferation of HEK293T cells stably expressing Y599F p85β. Conditions: AIM-100 8 μM; DMEM + 10% FBS; 1 μg/ml doxycycline; live cell counts, fold change over 24 h; three independent experiments. As to the method: as §1, §2
The next assay concerns pTyr284 ACK. Description: Active ACK level (pTyr284 ACK Western blot) in HEK293T cells. Conditions: AIM-100 8 μM; HEK293T cells expressing ACK and WT p85α; Western blot of whole cell lysate. As to the method: Figure 7 Subcellular localization of the ACK–p85α complex. ACK and WT p85α were expressed alone and together in HEK293T cells. Where indicated, cells were treated with 8 μM AIM-100. Fractionation was judged using anti-HSP56 to indicate cytoplasmic extracts and anti-fibrillarin to indicate nuclear-enriched fractions. Nuclear and cytoplasmic-enriched fractions were normalized using the Bradford assay, and FLAG-p85α was immunoprecipitated from fractions containing equal total protein using an anti-FLAG antibody. Top panel: Immunoprecipitation of FLAG-p85α and co-immunoprecipitation of HA-ACK was assessed by Western blotting using anti-FLAG and anti-HA antibodies. Bottom panel: Expression of FLAG-p85α and HA-ACK along with active ACK levels was confirmed by Western blotting of whole cell lysate (WCL) samples collected prior to cell fractionation. ACK, activated Cdc42-associated kinase. […]
(Immunoblotting shows a protein as a band on a membrane.)

For a further assay, the system named is ACK–p85α complex. Description: Co-immunoprecipitation of ACK with p85α from nuclear-enriched fractions of HEK293T cells. Conditions: AIM-100 8 μM, anti-FLAG immunoprecipitation. As for the experimental part:
Figure 7 Subcellular localization of the ACK–p85α complex. ACK and WT p85α were expressed alone and together in HEK293T cells. Where indicated, cells were treated with 8 μM AIM-100. Fractionation was judged using anti-HSP56 to indicate cytoplasmic extracts and anti-fibrillarin to indicate nuclear-enriched fractions. Nuclear and cytoplasmic-enriched fractions were normalized using the Bradford assay, and FLAG-p85α was immunoprecipitated from fractions containing equal total protein using an anti-FLAG antibody. Top panel: Immunoprecipitation of FLAG-p85α and co-immunoprecipitation of HA-ACK was assessed by Western blotting using anti-FLAG and anti-HA antibodies. Bottom panel: Expression of FLAG-p85α and HA-ACK along with active ACK levels was confirmed by Western blotting of whole cell lysate (WCL) samples collected prior to cell fractionation. ACK, activated Cdc42-associated kinase.
Small-scale co-immunoprecipitations were performed using 1 μg antibody cross-linked to Protein G Dynabeads (Life Technologies) with dimethyl pimelimidate. HEK293T cells were grown in 10 cm dishes to 70% confluence and then transfected for 40 h. […]
Cells were grown in 10 cm dishes to 70% confluence and then transfected for 40 h. […] Cytoplasmic and nuclear-enriched fractions were then either analyzed by SDS-PAGE gel directly or used in co-immunoprecipitation studies.

A further assay relates to p85α–p85β complex. The assay can be described thus: Co-immunoprecipitation of V5-p85β with FLAG-p85α from HEK293T cells. The settings on record: serum starved (0.05% serum, 16 h), then EGF 100 ng/ml for 5 min or insulin 100 μg/ml for 90 min; anti-FLAG immunoprecipitation; Fig. 6B. As to the method:
(§3) Figure 6 Dimerization of the regulatory subunits. HEK293T cells were transfected with control (GFP), FLAG-p50α (A) or FLAG-p85α (B) alone or with V5-p85β. Expression of the proteins in whole cell lysates (WCLs) is shown in the bottom panels. As indicated, cells were cultured in high serum (10% serum) or serum starved (0.05% serum) for 16 h and prior to lysis were either left untreated or stimulated with either EGF (100 ng/ml for 5 min) or insulin (100 μg/ml for 90 min). Cells were harvested 40 h after transfection and subject to immunoprecipitation using anti-FLAG antibodies. Co-precipitation of V5-p85β was assessed by Western blotting of immunoprecipitated samples using anti-V5 antibodies (top panels). C, WT p85β, WT p50α, and Y307D p50α (equivalent to Tyr607 in p85α) were expressed alone or co-expressed in HEK293T cells cultured in low serum. Samples of WCLs were analyzed by Western blotting using the antibodies indicated and are shown in lower panels. GAPDH is included as a loading control. FLAG-tagged p50α variants were immunoprecipitated from cell lysates using an anti-FLAG antibody, and the co-immunoprecipitation of p85β was assessed using an anti-V5 antibody (top panels). Results are representative of at least three independent experiments. […]

The next assay has as its system p50α–p85β complex. The assay can be described thus: Co-immunoprecipitation of V5-p85β with FLAG-p50α from HEK293T cells. The settings on record: serum starved (0.05% serum, 16 h), insulin 100 μg/ml for 90 min; anti-FLAG immunoprecipitation; Fig. 6A. As to the method: as §3

On to `c1ccc(-c2oc3ncnc(NC[C@@H]4CCCO4)c3c2-c2ccccc2)cc1` [AIM-100], for which, in assay [1], the “effect on proliferation of cells expressing WT p85β” value is “grew at a reduced rate”. For the same molecule, the “effect on proliferation of cells expressing Y599F p85β” value in assay [2] is recorded as “did not affect”. Besides, the “active ACK levels (pTyr284 ACK)” value in the assay on pTyr284 ACK is on record as “reduced active ACK levels”. The “p85α–ACK complex formation in the nucleus” value in the assay with ACK–p85α complex is “did not block p85α–ACK complex formation”.

Take “EGF: EGF (a known stimulator of ACK) (NSDSECPLSHDGYCLHDGVCMYIEALDKYACNCVVGYIGERCQYRDLKWWELR; UniProt P01133 971-1023, looked up)”: the “p85α–p85β complex formation” value with p85α–p85β complex is given as “increase”.

Turning to “insulin: Tyr607 phosphorylation has been detected downstream of insulin stimulation”, the “p50α–p85β complex formation” value in the assay on p50α–p85β complex is listed as “increased complex formation”. For the same molecule, in the assay with p85α–p85β complex, the “p85α–p85β complex formation” value is “not enhanced”.
